Activity calls are given as the source filed them. The rule behind the calls is not given here.
Assays:
[1] = biological target: RAC-alpha serine/threonine-protein kinase (Homo sapiens) (UniProt P31749); test: Inhibition of AKT phosphorylation at Ser473 in human NCI-H2009 cells at 2.5 uM after 24 to 48 hrs by Western blot analysis; type: cell-based
[2] = biological target: RAC-alpha serine/threonine-protein kinase (Homo sapiens) (UniProt P31749); test: Inhibition of AKT phosphorylation at Ser473 in […] WBras1 cells at 2.5 uM after 4 hrs by Western blot analysis; type: cell-based
[3] = biological target: RAC-alpha serine/threonine-protein kinase (Homo sapiens) (UniProt P31749); test: Inhibition of AKT phosphorylation at Ser473 in […] WBras1 cells at 2.5 uM after 24 hrs by Western blot analysis; type: cell-based
NCI-H2009 [4] = test: Growth inhibition of human NCI-H2009 cells assessed as reduction in cell number at 2.5 uM after 2 to 4 days by flow cytometric analysis; type: functional, cell-based
[5] = biological target: RAC-alpha serine/threonine-protein kinase (Homo sapiens) (UniProt P31749); test: Inhibition of AKT phosphorylation at Ser473 in human NCI-H2009 cells up to 10 uM after 4 hrs by Western blot analysis; type: cell-based
[6] = biological target: RAC-alpha serine/threonine-protein kinase (Homo sapiens) (UniProt P31749); test: Inhibition of AKT phosphorylation at Ser473 in […] WBras1 cells at 25 uM after 4 hrs by Western blot analysis; type: cell-based
[7] = biological target: RAC-alpha serine/threonine-protein kinase (Homo sapiens) (UniProt P31749); test: Inhibition of AKT phosphorylation at Ser473 in […] WBras1 cells at 25 uM after 24 hrs by Western blot analysis; type: cell-based
[8] = biological target: RAC-alpha serine/threonine-protein kinase (Homo sapiens) (UniProt P31749); test: Inhibition of AKT phosphorylation at Ser473 in human NCI-H2009 cells at 25 uM after 24 hrs by Western blot analysis; type: cell-based
[9] = biological target: RAC-alpha serine/threonine-protein kinase (Homo sapiens) (UniProt P31749); test: Inhibition of AKT phosphorylation at Ser473 in human NCI-H2009 cells at 1.25 uM after 24 to 48 hrs by Western blot analysis; type: cell-based
NCI-H2009 [10] = test: Growth inhibition of human NCI-H2009 cells assessed as reduction in cell number after 2 days by flow cytometric analysis; type: functional, cell-based
[11] = biological target: RAC-alpha serine/threonine-protein kinase (Homo sapiens) (UniProt P31749); test: Inhibition of AKT phosphorylation at Ser473 in […] WBras1 cells at 1.25 uM after 24 hrs by Western blot analysis; type: cell-based
[12] = biological target: RAC-alpha serine/threonine-protein kinase (Homo sapiens) (UniProt P31749); test: Inhibition of AKT phosphorylation at Ser473 in […] WBras1 cells at 1.25 uM after 4 hrs by Western blot analysis; type: cell-based
[13] = biological target: RAC-alpha serine/threonine-protein kinase (Homo sapiens) (UniProt P31749); test: Inhibition of AKT phosphorylation at Ser473 in human NCI-H2009 cells at 2.5 uM after 1 to 4 hrs by Western blot analysis; type: cell-based
NCI-H2009 [14] = test: Growth inhibition of human NCI-H2009 cells assessed as reduction in cell number at 1.25 uM after 2 to 4 days by flow cytometric analysis; type: functional, cell-based

RAC-alpha serine/threonine-protein kinase (Homo sapiens), sequence (P31749 whole entry): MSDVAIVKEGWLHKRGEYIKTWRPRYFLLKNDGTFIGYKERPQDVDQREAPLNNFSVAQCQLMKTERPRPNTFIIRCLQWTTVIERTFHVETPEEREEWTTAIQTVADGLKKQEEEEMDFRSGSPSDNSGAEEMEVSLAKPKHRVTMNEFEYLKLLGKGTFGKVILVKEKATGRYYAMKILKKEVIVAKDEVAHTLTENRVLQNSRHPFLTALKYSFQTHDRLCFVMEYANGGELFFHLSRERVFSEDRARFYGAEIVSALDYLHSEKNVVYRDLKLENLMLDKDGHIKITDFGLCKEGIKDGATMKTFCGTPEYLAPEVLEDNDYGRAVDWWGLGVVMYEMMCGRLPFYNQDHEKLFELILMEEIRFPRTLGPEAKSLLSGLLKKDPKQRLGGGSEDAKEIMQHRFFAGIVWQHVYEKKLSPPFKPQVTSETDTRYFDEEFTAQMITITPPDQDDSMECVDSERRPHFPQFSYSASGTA

CCCCCCCCCCCCSC(=NC)NC was tested, and the inhibition [1] was “inactive”, the inhibition [2] was “Active” and the inhibition [3] was “Active”. For the same molecule, the “growth inhibition (GI)” value (NCI-H2009 [4]) was “Active” and the inhibition [5] was “inactive”.
C=CCCCCCCCCC1OCCN1CC (stereo unspecified) was tested, and the inhibition [6] was “Active”, the inhibition [7] was “Active” and the inhibition [8] was “inactive”. For the same molecule, the “growth inhibition (GI)” value (NCI-H2009 [4]) was “inactive”.
For CCCCCCCCCCCCSC1=NCCCN1, the inhibition [9] was “Active”, the “growth inhibition (GI)” value (NCI-H2009 [10]) was “Dose-dependent effect” and the IC50 (NCI-H2009 [10]; NCI-H2009, 48 h) was 200 nM. The inhibition [11] was “Active”, the inhibition [12] was “Active” and the inhibition [13] was “Active”. For the same molecule, the “growth inhibition (GI)” value (NCI-H2009 [14]) was “Active”.

Reference: ChEMBL document CHEMBL4265884, “Discovery and biological activity of computer-assisted drug designed Akt pathway inhibitors” (Bioorg Med Chem Lett, 2018)
